Assay results taken from the supplement of paper PMC8967900.

Assays:
Experiment in all cases: selective drug sensitivity score (sDSS, relative to normal bone marrow) (sDSS (score)); higher = more potent and effective on the cell line relative to normal bone marrow cells
Conditions in all cases: 72 h
ALL-SIL = tested on: ALL-SIL
CCRF-HSB2 = tested on: CCRF-HSB2
COG-LL-332h = tested on: COG-LL-332h
COG-LL-355h = tested on: COG-LL-355h
COG-LL-402h = tested on: COG-LL-402h
HAL-01 = tested on: HAL-01
KARPAS-45 = tested on: KARPAS-45
KASUMI-9 = tested on: KASUMI-9
LC4-1 = tested on: LC4-1
MHH-CALL-2 = tested on: MHH-CALL-2
MHH-CALL-3 = tested on: MHH-CALL-3
MHH-CALL-4 = tested on: MHH-CALL-4
MOLT-14 = tested on: MOLT-14
NALM-16 = tested on: NALM-16
NALM-6 = tested on: NALM-6
P12-ICHIKAWA = tested on: P12-ICHIKAWA
PF-382 = tested on: PF-382
RPMI-8402 = tested on: RPMI-8402
SEM cells = tested on: SEM cells
TMD5 = tested on: TMD5
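Note: ALL cell lines in 384-well plates, five doses spanning 10,000-fold, each plate scaled between vehicle and 100 µmol/L benzalkonium chloride controls, sDSS an adapted area-under-curve metric.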

SMILES | selective drug sensitivity score (ALL-SIL) | selective drug sensitivity score (CCRF-HSB2) | selective drug sensitivity score (COG-LL-332h) | selective drug sensitivity score (COG-LL-355h) | selective drug sensitivity score (COG-LL-402h) | selective drug sensitivity score (HAL-01) | selective drug sensitivity score (KARPAS-45) | selective drug sensitivity score (KASUMI-9) | selective drug sensitivity score (LC4-1) | selective drug sensitivity score (MHH-CALL-2) | selective drug sensitivity score (MHH-CALL-3) | selective drug sensitivity score (MHH-CALL-4) | selective drug sensitivity score (MOLT-14) | selective drug sensitivity score (NALM-16) | selective drug sensitivity score (NALM-6) | selective drug sensitivity score (P12-ICHIKAWA) | selective drug sensitivity score (PF-382) | selective drug sensitivity score (RPMI-8402) | selective drug sensitivity score (SEM cells) | selective drug sensitivity score (TMD5)
Nc1nc(Nc2ccc3c(c2)CC[C@@H](N2CCCC2)CC3)nn1-c1cc2c(nn1)-c1ccccc1CCC2 [BGB324] (top concentration 10000 nM) | 3.12 | 2.32 | 2.22 | 3.82 | 2.32 | -1.58 | 1.92 | 5.22 | 1.52 | -1.58 | -0.98 | -2.88 | 1.62 | -1.58 | 1.92 | 0.02 | 0.32 | 2.92 | 5.72 | -2.98
C[C@H]1C[C@@H](n2c(Nc3ccc(OC(F)(F)F)cc3)nc3cc(CCC(=O)O)ccc32)CC(C)(C)C1 (top concentration 10000 nM) | 1.06 | 2.56 | 1.36 | 2.16 | -0.14 | 1.16 | 2.76 | 0.66 | 0.76 | 0.96 | -0.14 | -0.14 | 2.96 | -0.14 | 0.16 | 1.26 | 0.66 | 1.46 | 0.16 | -0.14
CC(=O)O[C@H]1C(=O)[C@@]2(C)[C@H]([C@H](OC(=O)c3ccccc3)[C@]3(O)C[C@H](OC(=O)[C@H](O)[C@@H](NC(=O)c4ccccc4)c4ccccc4)C(C)=C1C3(C)C)[C@]1(OC(C)=O)CO[C@@H]1C[C@@H]2O [Paclitaxel] (top concentration 1000 nM) | 20.8 | 18.8 | 20.5 | 5.14 | 12.8 | 0.74 | 18.3 | 19.6 | 23 | 17.3 | 5.24 | 7.24 | 19 | 14.1 | 16.7 | 19.9 | 13.2 | 16 | 21.3 | 8.14
CN(C)C(=O)c1ccc(S(=O)(=O)c2ccc(NC(=O)[C@@](C)(O)C(F)(F)F)c(Cl)c2)cc1 [AZD7545] (top concentration 10000 nM) | 3.4 | 1.3 | 0.5 | -0.2 | -0.2 | -0.2 | 2.9 | -0.2 | 1.6 | -0.2 | 0.1 | -0.2 | 1 | 0.3 | 3.7 | 2.7 | 3.1 | 5.7 | 0.6 | -0.2
CN1CCN(C(=O)c2ccc3cc(CCNc4ncnc5ccc(C#N)cc45)ccc3c2)CC1 [Senexin_B] (top concentration 1000 nM) | -0.6 | 3.8 | 0.6 | -0.6 | -0.4 | -0.6 | 1.4 | -0.6 | -0.6 | -0.1 | -0.1 | -0.6 | 2.1 | -0.6 | 0.9 | 0.4 | -0.1 | 1.1 | -0.6 | -0.6
C=CC(=O)Nc1cccc(Nc2nc(Nc3ccc(N4CCN(C(C)=O)CC4)cc3OC)ncc2C(F)(F)F)c1 [Rociletinib] (top concentration 10000 nM) | 3.64 | 1.24 | 1.84 | 5.84 | 5.24 | 0.14 | 3.14 | 5.14 | 3.94 | 1.94 | -1.06 | 2.14 | 2.54 | 4.04 | 4.94 | 1.94 | 0.64 | 2.24 | 6.34 | -2.06
CC[C@@H]1CN(C(=O)NCC(F)(F)F)C[C@@H]1c1cnc2cnc3[nH]ccc3n12 [Upadacitinib] (top concentration 10000 nM) | -7.16 | -5.06 | -6.66 | -7.16 | -7.16 | -6.76 | -7.16 | -2.76 | -5.16 | -7.16 | -0.46 | -6.46 | -7.16 | -7.16 | -5.96 | -7.16 | -6.06 | -7.16 | -7.16 | -7.16
CC(O)(CS(=O)(=O)c1ccc(F)cc1)C(=O)Nc1ccc(C#N)c(C(F)(F)F)c1 (stereo not given) [Bicalutamide] (top concentration 10000 nM) | -1.68 | -1.28 | 0.72 | 2.62 | -1.68 | -1.68 | -0.88 | 0.52 | -1.68 | -1.68 | -1.68 | -1.68 | 2.52 | 0.62 | 2.02 | -0.88 | -1.38 | 1.02 | -1.68 | -0.88
CC[C@H](CO)Nc1nc(NCc2ccccc2)c2ncn(C(C)C)c2n1 [Seliciclib] (top concentration 10000 nM) | 3.06 | 0.56 | 2.16 | 2.46 | -1.04 | -0.34 | 1.96 | -0.44 | 1.06 | 1.26 | -1.04 | 0.16 | -1.04 | -1.04 | -1.04 | -0.94 | -1.04 | -0.54 | -0.04 | -1.04
Cc1cc(Nc2nc(N[C@@H](C)c3ncc(F)cn3)ncc2Cl)[nH]n1 [AZD1480] (top concentration 1000 nM) | -0.28 | -1.78 | -3.08 | 0.42 | -3.98 | -0.98 | 0.32 | -0.68 | -4.08 | -1.38 | -1.28 | -0.78 | -4.28 | -4.28 | -3.58 | -4.28 | -4.08 | -3.18 | -1.98 | -1.98
O=C(O)c1ccc(CN2CCC(CN[C@@H]3C[C@H]3c3ccccc3)CC2)cc1 (top concentration 100000 nM) | -0.62 | -0.12 | 0.08 | 0.58 | -0.62 | -0.62 | -0.32 | -0.62 | -0.02 | -0.02 | -0.62 | 0.58 | -0.62 | -0.62 | -0.62 | -0.62 | -0.42 | -0.22 | 0.28 | -0.62
CC(=O)O[C@@]12CO[C@@H]1C[C@H](O)[C@@]1(C)C(=O)[C@H](O)C3=C(C)[C@@H](OC(=O)[C@H](O)[C@@H](NC(=O)OC(C)(C)C)c4ccccc4)C[C@@](O)([C@@H](OC(=O)c4ccccc4)[C@H]21)C3(C)C [Docetaxel] (top concentration 1000 nM) | 20.6 | 19.3 | 22.2 | 5.1 | 15 | 4.9 | 17.1 | 21 | 22.9 | 18.6 | 7.3 | 8.2 | 19.5 | 12.3 | 14.1 | 19.1 | 10.5 | 13.2 | 19.5 | 8.5
COc1cc([C@@H]2c3cc4c(cc3[C@@H](O[C@@H]3O[C@@H]5CO[C@@H](C)O[C@H]5[C@H](O)[C@H]3O)[C@H]3COC(=O)[C@H]23)OCO4)cc(OC)c1O [Etoposide] (top concentration 10000 nM) | 14.3 | 26 | 22.7 | 6.74 | 21.4 | 5.14 | 7.24 | 16.3 | 14.8 | 13.2 | 19.7 | 10.2 | 21.5 | 2.64 | 14.1 | 18.9 | 13.5 | 17.4 | 15.5 | 5.24
O=c1ncn2nc(Sc3ccc(F)cc3F)ccc2c1-c1c(Cl)cccc1Cl [Neflamapimod] (top concentration 10000 nM) | 1.3 | 0.5 | 0.3 | 2.2 | 0.1 | 2.5 | 0.1 | 3.1 | 0.9 | 1.8 | 0 | 0 | 0 | 0 | 0.6 | 1 | 0.5 | 2.1 | 1.5 | 0
Cc1c2oc3c(C)ccc(C(=O)N[C@@H]4C(=O)N[C@H](C(C)C)C(=O)N5CCC[C@H]5C(=O)N(C)CC(=O)N(C)[C@@H](C(C)C)C(=O)O[C@@H]4C)c3nc-2c(C(=O)N[C@@H]2C(=O)N[C@H](C(C)C)C(=O)N3CCC[C@H]3C(=O)N(C)CC(=O)N(C)[C@@H](C(C)C)C(=O)O[C@@H]2C)c(N)c1=O [Dactinomycin] (top concentration 1000 nM) | 8.04 | 15.7 | 14.5 | 8.54 | 15.2 | 1.04 | 8.44 | 19.4 | 17.5 | 12.4 | 15.7 | 11.6 | 16.9 | 5.24 | 12.5 | 0.44 | 3.64 | 1.54 | 11.3 | 7.84
Clc1ccc(C(c2ccccc2Cl)C(Cl)Cl)cc1 (stereo not given) [Mitotane] (top concentration 10000 nM) | -0.08 | -0.08 | 0.92 | 0.02 | -0.08 | 0.62 | 0.02 | -0.08 | -0.08 | 1.32 | -0.08 | 0.12 | 0.32 | -0.08 | -0.08 | -0.08 | 0.12 | -0.08 | -0.08 | -0.08
N.N.[Cl][Pt][Cl] [Cisplatin] (top concentration 100000 nM) | 8.94 | 21 | 19.4 | 5.84 | 1.54 | 12 | 5.84 | 12.3 | 17.7 | 14.6 | 4.04 | 10.7 | 18.6 | -0.86 | 0.64 | 12.7 | 10.2 | 4.04 | 12.2 | 1.24
